# Experimental data from ChEMBL document CHEMBL1143650, “Synthesis of desthio prenylcysteine analogs: sulfur is important for biological activity” (Bioorg Med Chem Lett, 2005).
# Columns and labels:
# [1] = target: T1, Protein-S-isoprenylcysteine O-methyltransferase (Saccharomyces cerevisiae S288c, UniProt P32584); assay: Inhibitory concentration against isoprenyl-cysteine carboxyl methyltransferase
# T1 sequence (P32584 whole entry): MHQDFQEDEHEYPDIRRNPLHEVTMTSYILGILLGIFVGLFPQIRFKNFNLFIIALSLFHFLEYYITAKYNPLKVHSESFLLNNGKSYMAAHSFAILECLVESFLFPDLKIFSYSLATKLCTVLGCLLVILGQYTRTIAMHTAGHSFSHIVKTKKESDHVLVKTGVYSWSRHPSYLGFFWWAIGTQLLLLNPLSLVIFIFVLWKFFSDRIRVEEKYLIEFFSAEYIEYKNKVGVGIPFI
# [2] = target: T1, Protein-S-isoprenylcysteine O-methyltransferase; assay: Inhibitory concentration against isoprenyl-cysteine carboxyl methyltransferase by Casey method; Range 7 - 14 uM
Ki [1] [µM],IC50 [2] [µM],IC50 [1] [µM],Compound
4.6,–,–,CC(C)=CCC/C(C)=C/CC/C(C)=C/CSCC(=O)O [FARNESYLTHIOACETIC ACID]
13.2,–,–,CC(=O)NC(C[S+]([O-])C/C=C(\C)CC/C=C(\C)CC/C=C(\C)CCC=C(C)C)C(=O)O (stereo not given)
17.1,14,44,CC(=O)N[C@@H](CSC/C=C(\CC=C(C)C)CC/C=C(\C)CCC=C(C)C)C(=O)O
